According to US20260306642A1, “STAT DEGRADERS AND USES THEREOF” (Recludix Pharma, Inc., priority 2023, published 2026):
Read-outs that look alike come from different tables or passages of the source.

Target: pSTAT3 (Homo sapiens, UniProt P40763)
Experiment: MSD-pSTAT-PBMC Assay (pSTAT3, IL-6 stimulated)
Format: cell-based
Description: Cryopreserved Peripheral Blood Mononuclear Cells (PBMC) are from AllCells. Recombinant Human IL-4 and IL-6 are from Peprotech. Mouse monoclonal anti-STAT3 antibody, rabbit monoclonal anti-pY705-STAT3 antibody, rabbit monoclonal Anti-pY641-STAT6 antibody, and lysis buffer are from Cell Signaling Technology (CST). Mouse monoclonal anti-STAT6 antibody is from BioLegend. Assay plates, blocker, and anti-rabbit secondary antibody are from Meso Scale Discovery (MSD).
Cryopreserved PBMCs were thawed out and allowed to recover overnight in IMDM+10% heat-inactivated FBS prior to plating 50,000 (STAT3) or 25,000 (STAT6) cells per well in 96-well U-bottom tissue culture plates. Cells were treated with compound for 3 hrs, then stimulated with 10 ng/mL IL-6 (STAT3) or 1 ng/mL IL-4 (STAT6) for 10 min. Cells were then spun down and washed with ice-cold PBS prior to lysing the cell pellet with 1× lysis buffer (CST) with 1× HALT protease and phosphatase inhibitor cocktail (Thermo). Lysates were transferred to and incubated overnight at 4° C. with shaking in QuickPlex 96-well high bind assay plates (MSD) pre-coated overnight with 30 μL per well of […] mouse monoclonal anti-STAT3 antibody (STAT3) or 2 μg/mL mouse monoclonal anti-STAT6 antibody (STAT6) in 1× PBS, and pre-blocked for 1 hour with 3% Blocker-A (MSD). Captured protein in the assay plates were then washed and probed with 25 μL per well of […] rabbit monoclonal anti-pY705-STAT3 antibody (STAT3) or […] rabbit monoclonal Anti-pY641-STAT6 antibody (STAT6) in 1% Blocker-A for 1 hour at room temperature with shaking, then washed and probed with 25 ul per well of 1 ug/ml Sulfo-TAG Labeled Goat Anti-Rabbit Antibody (MSD) in 1% Blocker-A for 1 hour at room temperature with shaking. Assay plates were then washed and 150 μL of 1× Read Buffer-T (MSD) was added to each well prior to reading on an SQ120 MSD Plate Reader. Assay signal from each sample was subtracted by the signal from unstimulated control wells and normalized to DMSO control wells. IC50 values were calculated using Graph Pad Prism Dose-Response Nonlinear Regression with variable slope. For both pSTAT3 and pSTAT6 A=≤100 nM; B=>100-1000 nM; C=>1000-3000 nM; and D=>3 μM.

[1] = compound 3 hrs, then 10 ng/mL IL-6 10 min, pY705-STAT3, read-out: pSTAT3 IC50
[2] = read-out: pSTAT3 IC50, compound 3 hrs, then 10 ng/mL IL-6 10 min, pY705-STAT3

Sequence of pSTAT3 (P40763 whole entry): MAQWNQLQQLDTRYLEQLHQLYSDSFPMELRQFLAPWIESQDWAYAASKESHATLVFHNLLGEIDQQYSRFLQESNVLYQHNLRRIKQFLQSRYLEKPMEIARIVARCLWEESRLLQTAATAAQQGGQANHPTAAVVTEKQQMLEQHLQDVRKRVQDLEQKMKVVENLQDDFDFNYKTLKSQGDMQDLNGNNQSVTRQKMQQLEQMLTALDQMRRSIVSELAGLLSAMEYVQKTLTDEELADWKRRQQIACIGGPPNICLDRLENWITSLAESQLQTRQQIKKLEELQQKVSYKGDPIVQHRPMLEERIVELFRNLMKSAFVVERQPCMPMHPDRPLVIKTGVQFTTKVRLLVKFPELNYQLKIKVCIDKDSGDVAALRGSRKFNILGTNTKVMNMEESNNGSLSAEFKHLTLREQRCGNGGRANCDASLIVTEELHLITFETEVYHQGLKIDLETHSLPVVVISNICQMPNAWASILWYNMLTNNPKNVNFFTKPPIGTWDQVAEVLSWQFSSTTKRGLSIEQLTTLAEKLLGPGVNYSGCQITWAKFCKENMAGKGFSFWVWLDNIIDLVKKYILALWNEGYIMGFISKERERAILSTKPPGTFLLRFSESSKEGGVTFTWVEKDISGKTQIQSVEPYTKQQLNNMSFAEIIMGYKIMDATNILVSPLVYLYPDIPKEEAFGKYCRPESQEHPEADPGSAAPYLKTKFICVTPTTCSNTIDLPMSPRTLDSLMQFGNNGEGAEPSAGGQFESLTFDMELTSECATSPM

SMILES | IC50 [1] [µM] | IC50 [2] [µM]
CCCC(=O)SCCOP(=O)(OCCSC(=O)CCC)C(F)(F)c1ccc2sc(C(=O)N[C@H]3CCC[C@H]4CC[C@@H](C(=O)N5CC(c6cnccc6N(C)CCOc6ccc(C7CCC(=O)NC7=O)cc6)C5)N4C3=O)cc2c1 (stereo partly drawn) [Compound 20, S,S(((((2-(((3S,6S,9aS)-3-(3-(4-((2-(4-(2,6-dioxopiperidin-3-yl)phenoxy)ethyl)(methyl)amino)pyridin-3-yl)azetidine-1-carbonyl)-5-oxooctahydro-1H-pyrrolo[1,2-a]azepin-6-yl)carbamoyl)benzo[b]thiophen-5-yl)difluoromethyl)phosphoryl)bis(oxy))bis(ethane-2,1-diyl)) dibutanethioate] | < 0.1 | 
CCCC(=O)SCCOP(=O)(OCCSC(=O)CCC)C(F)(F)c1ccc2sc(C(=O)N[C@H]3CCC[C@H]4CC[C@@H](C(=O)N5CC(c6cnccc6OCCOCCOc6ccc(C7CCC(=O)NC7=O)cc6)C5)N4C3=O)cc2c1 (stereo partly drawn) [Compound 12, S,S((((2-(((3S,6S,9aS)-3-(3-(4-(2-(2-(4-(2,6-dioxopiperidin-3-yl)phenoxy)ethoxy)ethoxy)pyridin-3-yl)azetidine-1-carbonyl)-5-oxooctahydro-1H-pyrrolo[1,2-a]azepin-6-yl)carbamoyl)benzo[b]thiophen-5-yl)difluoromethyl)phosphoryl)bis(oxy))bis(ethane-2,1-diyl)) dibutanethioate] | < 0.1 | 
Cn1c(=O)n(C2CCC(=O)NC2=O)c2ccc(C#CCCC3CCN(c4ccncc4C4CN(C(=O)[C@@H]5CC[C@@H]6CCC[C@H](NC(=O)c7cc8cc(C(F)(F)P(=O)(OCCSC(=O)C(C)(C)C)OCCSC(=O)C(C)(C)C)ccc8s7)C(=O)N65)C4)CC3)cc21 (stereo partly drawn) [Compound 35, S,S(((((2-(((3S,6S,9aS)-3-(3-(4-(4-(4-(1-(2,6-dioxopiperidin-3-yl)-3-methyl-2-oxo-2,3-dihydro-1H-benzo[d]imidazol-5-yl)but-3-yn-1-yl)piperidin-1-yl)pyridin-3-yl)azetidine-1-carbonyl)-5-oxooctahydro-1H-pyrrolo[1,2-a]azepin-6-yl)carbamoyl)benzo[b]thiophen-5-yl)difluoromethyl)phosphoryl)bis(oxy))bis(ethane-2,1-diyl)) bis(2,2-dimethylpropanethioate)] | < 0.1 | 
CCCC(=O)SCCOP(=O)(OCCSC(=O)CCC)C(F)(F)c1ccc2sc(C(=O)N[C@H]3CCC[C@H]4CC[C@@H](C(=O)N5CC(c6cnccc6N6CCN(C(=O)COc7ccc(C8CCC(=O)NC8=O)cc7)CC6)C5)N4C3=O)cc2c1 (stereo partly drawn) [Compound 29, S,S(((((2-(((3S,6S,9aS)-3-(3-(4-(4-(2-(4-(2,6-dioxopiperidin-3-yl)phenoxy)acetyl)piperazin-1-yl)pyridin-3-yl)azetidine-1-carbonyl)-5-oxooctahydro-1H-pyrrolo[1,2-a]azepin-6-yl)carbamoyl)benzo[b]thiophen-5-yl)difluoromethyl)phosphoryl)bis(oxy))bis(ethane-2,1-diyl)) dibutanethioate] |  | < 0.1
CCCOC(=O)[C@H](C)NP(=O)(Oc1ccccc1)[C@@H](F)c1ccc2sc(C(=O)N[C@H]3CCC[C@H]4CC[C@@H](C(=O)N5CC(c6cnccc6N6CCC(CCC#Cc7ccc8c(c7)n(C)c(=O)n8C7CCC(=O)NC7=O)CC6)C5)N4C3=O)cc2c1 (stereo partly drawn) [Compound 38, propyl (((1R)-(2-(((3S,6S,9aS)-3-(3-(4-(4-(4-(1-(2,6-dioxopiperidin-3-yl)-3-methyl-2-oxo-2,3-dihydro-1H-benzo[d]imidazol-5-yl)but-3-yn-1-yl)piperidin-1-yl)pyridin-3-yl)azetidine-1-carbonyl)-5-oxooctahydro-1H-pyrrolo[1,2-a]azepin-6-yl)carbamoyl)benzo[b]thiophen-5-yl)fluoromethyl)(phenoxy)phosphoryl)-L-alaninate] |  | < 0.1
